According to US20130245355A1, “3-HETARYL-SUBSTITUTED PYRROLO[2,3 B]PYRIDINE DERIVATIVES AS PDK1 INHIBITORS” (MERCK PATENT GMBH, priority 2010, published 2013):

Columns and labels:
[1] = target: T1, PDK1 (Homo sapiens, UniProt O15530); test: Cellular testing of PDK1 kinase inhibitors in PC3 cells (Luminex, phospho-T308-PKB); type: cell-based; settings: 30 min, serum-free
T1 construct: endogenous in cells; host or cells: PC3 cells
T1 sequence (O15530 1-556): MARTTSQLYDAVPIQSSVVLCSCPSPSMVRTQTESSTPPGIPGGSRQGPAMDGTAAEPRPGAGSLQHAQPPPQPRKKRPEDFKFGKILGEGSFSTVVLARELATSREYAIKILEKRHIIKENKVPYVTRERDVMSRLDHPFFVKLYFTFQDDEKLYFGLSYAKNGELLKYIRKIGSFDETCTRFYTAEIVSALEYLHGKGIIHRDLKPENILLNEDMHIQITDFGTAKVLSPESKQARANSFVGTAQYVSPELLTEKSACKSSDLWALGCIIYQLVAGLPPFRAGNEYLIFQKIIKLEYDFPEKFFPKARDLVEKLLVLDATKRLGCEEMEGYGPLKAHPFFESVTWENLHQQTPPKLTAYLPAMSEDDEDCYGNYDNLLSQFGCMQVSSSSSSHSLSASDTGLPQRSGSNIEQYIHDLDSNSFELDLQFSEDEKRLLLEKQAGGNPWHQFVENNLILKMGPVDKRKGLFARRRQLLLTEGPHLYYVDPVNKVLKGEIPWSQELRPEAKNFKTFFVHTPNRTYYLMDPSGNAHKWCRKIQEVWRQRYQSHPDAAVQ
Description: Method for the Cellular Testing of PDK1 Kinase Inhibitors in PC3 Cells.
The cellular assay for the determination of the PDK1 kinase activity is carried out as a Luminex assay in the 96-well format. PC3 cells are sown at 20,000 cells per well in 100 μl of medium (45% of […]/45% of Ham's F12/10% of FCS) and incubated on the following day for 30 min with a serial dilution of the test substance (7 concentrations) under serum-free conditions. The cells are subsequently lysed using 90 μl of lysis buffer (20 mM tris/HCl pH 8.0, 150 mM NaCl, 1% of NP40, 10% of glycerol, 1% of phosphatase inhibitor I, 1% of phosphatase inhibitor II, 0.1% of protease inhibitor cocktail III, 0.01% of benzonase) per well, and the lysates are separated off from insoluble cell constituents by means of centrifugation through a 96-well filter plate (0.65 μm). The lysates are incubated overnight at 4° C. with shaking with Luminex beads to which an anti-total PKB antibody is coupled. The detection is carried out on the following day by addition of a phospho-T308-PKB antibody and a species-specific […] secondary antibody. The detection of phospho T308-PKB is carried out by measurement in a Luminex100 instrument by determination of 100 events per cavity in a measurement time of 60 sec. As pharmacological blank, the signals obtained from cells which have been treated with 10 μM staurosporin are subtracted from all other batches. The control value used for maximum phosphorylation of PKB on T308 are the signals from cells which have only been treated with the solvent (0.3% of DMSO). The values of the batches treated with test substance are calculated therefrom as percentage of control, and IC50 values are determined by means of RS 1.

[2] = target: T2, PDK1 (Homo sapiens, UniProt O15530); test: Test for the inhibition of PDK1 (flashplate, 33P-ATP); settings: His6-PDK1 (1-50) 3.4 nM, 4 μM ATP, 30° C., 60 min; read-out: IC50 [PDK1] biochemical
T2 construct: His6 (N)
T2 sequence (O15530 51-556 limits assumed): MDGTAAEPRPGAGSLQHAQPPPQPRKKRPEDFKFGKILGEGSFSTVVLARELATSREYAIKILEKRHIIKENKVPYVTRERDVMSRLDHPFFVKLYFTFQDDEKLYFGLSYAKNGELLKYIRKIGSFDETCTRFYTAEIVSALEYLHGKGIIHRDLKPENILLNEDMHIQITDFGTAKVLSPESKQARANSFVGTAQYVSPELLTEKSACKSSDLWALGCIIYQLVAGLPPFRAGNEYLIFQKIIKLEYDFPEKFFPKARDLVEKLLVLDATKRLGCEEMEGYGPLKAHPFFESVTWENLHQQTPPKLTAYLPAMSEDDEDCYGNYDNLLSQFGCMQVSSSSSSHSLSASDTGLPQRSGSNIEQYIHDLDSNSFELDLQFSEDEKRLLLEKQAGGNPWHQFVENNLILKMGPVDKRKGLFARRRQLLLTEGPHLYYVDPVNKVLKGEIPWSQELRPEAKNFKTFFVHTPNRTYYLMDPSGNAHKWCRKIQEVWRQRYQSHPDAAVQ
Description: The experimental batches are carried out in a flashplate system with 384 wells/microtitration plate.
In each case, the PDK1 sample His6-PDK1 (1-50) (3.4 nM), the PDK1 substrate biotin-bA-bA-[…] (400 nM), 4 μM ATP (with 0.2μ Ci of ^33P-ATP/well) and the test substance in 50 μl of conventional experimental solution per well are incubated at 30° C. for 60 min. The test substances are employed in corresponding concentrations (if desired in a dilution series). The control is carried out without test substance. The reaction is stopped using standard methods and washed. The activity of the kinase is measured via the incorporated radioactivity in top count. In order to determine the non-specific kinase reaction (blank value), the experimental batches are carried out in the presence of 100 nM staurosporin.
The radioactivity (decompositions per minute) of the blank value (no use of test substance in the presence of staurosporin) is subtracted from all other radioactivity values. The controls (kinase activity without test substance) are set equal to 100 percent and all other radioactivity values (after subtracting the blank value) are expressed set in relation thereto (for example in % of the control).
IC50 values (50% inhibition) are determined with the aid of statistics programmes, such as, for example, RS1.

Structure (SMILES)	IC50 [1] [nM]	IC50 [2] [nM]
Cn1cc(-c2cnc3[nH]cc(-c4nnc(C(O)c5cccc(Cl)c5)o4)c3c2)cn1 (stereo not drawn) [A59]	0.5 to 1000	0.5 to 1000
Cn1cc(-c2cnc3[nH]cc(-c4nnc(C(O)c5cccc(Cl)c5Cl)o4)c3c2)cn1 (stereo not drawn) [A65]	0.5 to 1000	0.5 to 1000
Cn1cc(-c2cnc3[nH]cc(-c4nnc(C(N)c5cc(F)cc(F)c5)o4)c3c2)cn1 (stereo not drawn) [A117]	1000 to 10000	1000 to 10000
Cn1cc(-c2cnc3[nH]cc(-c4nnc(Cc5cccc(F)c5)o4)c3c2)cn1 [A19, 3-[5-(3-fluorobenzyl)-1,3,4-oxadiazol-2-yl]-5-(1-methyl-1H-pyrazol-4-yl)-1H-pyrrolo[2,3-b]pyridine]	1000 to 10000	0.5 to 1000
Cn1cc(-c2cnc3[nH]cc(-c4cc([C@](C)(O)c5ccccc5)on4)c3c2)cn1 (single isomer, unassigned) [A35]	1000 to 10000	0.5 to 1000
Cn1cc(-c2cnc3[nH]cc(-c4nc(C(C)(O)c5cccc(F)c5)no4)c3c2)cn1 (stereo not drawn) [A72]	0.5 to 1000	0.5 to 1000
CC(O)(c1cc(-c2c[nH]c3ncc(-c4cnn(CCO)c4)cc23)no1)c1ccccc1F (stereo not drawn) [A24]	0.5 to 1000	0.5 to 1000
Cn1cc(-c2cnc3[nH]cc(-c4nnc(C(O)c5ccccc5)o4)c3c2)cn1 (stereo not drawn) [A29]	1000 to 10000	0.5 to 1000
Cn1cc(-c2cnc3[nH]cc(-c4n[nH]c(C5(c6cccnc6)CC5)n4)c3c2)cn1 [A125, 5-(1-methyl-1H-pyrazol-4-yl)-3-[5-(1-pyridin-3-ylcyclopropyl)-1H-1,2,4-triazol-3-yl]-1H-pyrrolo[2,3-b]pyridine]	1000 to 10000	0.5 to 1000
Cn1cc(-c2cnc3[nH]cc(-c4cc(C(C)(O)c5ccccc5F)[nH]n4)c3c2)cn1 (stereo not drawn) [A18]	1000 to 10000	0.5 to 1000
Cn1cc(-c2cnc3[nH]cc(-c4cc(C(C)(O)c5cccc(F)c5)[nH]n4)c3c2)cn1 (stereo not drawn) [A37, 1-(3-fluorophenyl)-1-{5-[5-(1-methyl-1H-pyrazol-4-yl)-1H-pyrrolo[2,3-b]pyridin-3-yl]-2H-pyrazol-3-yl}ethanol]	0.5 to 1000	0.5 to 1000
Cn1cc(-c2cnc3[nH]cc(-c4nc(C(C)(O)c5ccccc5Cl)no4)c3c2)cn1 (stereo not drawn) [A79]	0.5 to 1000	1000 to 10000
Cn1cc(-c2cnc3[nH]cc(-c4nnc(Cc5ccccc5F)o4)c3c2)cn1 [A22]	0.5 to 1000	0.5 to 1000
CCC(O)(c1cc(-c2c[nH]c3ncc(-c4cnn(C)c4)cc23)no1)c1ccccc1F (stereo not drawn) [A25]	0.5 to 1000	0.5 to 1000
Cn1cc(-c2cnc3[nH]cc(-c4cc(C(C)(O)c5ccccc5Cl)[nH]n4)c3c2)cn1 (stereo not drawn) [A88]	1000 to 10000	0.5 to 1000
Cn1cc(-c2cnc3[nH]cc(-c4n[nH]c(C(O)c5ccccc5Cl)n4)c3c2)cn1 (stereo not drawn) [A87, (2-chlorophenyl)-{5-[5-(1-methyl-1H-pyrazol-4-yl)-1H-pyrrolo[2,3-b]pyridin-3-yl]-2H-1,2,4-triazol-3-yl}-methanol]	1000 to 10000	0.5 to 1000
Cn1cc(-c2cnc3[nH]cc(-c4nnc(C5(c6cccnc6)CC5)o4)c3c2)cn1 [A124, 5-(1-methyl-1H-pyrazol-4-yl)-3-[5-(1-pyridin-3-ylcyclopropyl)-1,3,4-oxadiazol-2-yl]-1H-pyrrolo[2,3-b]pyridine]	1000 to 10000	0.5 to 1000

Structure (SMILES)	IC50 [1] [nM]	IC50 [2] [nM]
Cn1cc(-c2cnc3[nH]cc(-c4cc(C(O)c5ccccc5)[nH]n4)c3c2)cn1 (stereo not drawn) [A74]	0.5 to 1000	0.5 to 1000
Cn1cc(-c2cnc3[nH]cc(-c4nnc(C(O)c5ccc(F)cc5)o4)c3c2)cn1 (stereo not drawn) [A57, (4-fluorophenyl)-{5-[5-(1-methyl-1H-pyrazol-4-yl)-1H-pyrrolo[2,3-b]pyridin-3-yl]-1,3,4-oxadiazol-2-yl}methanol]	1000 to 10000	0.5 to 1000
Cn1cc(-c2cnc3[nH]cc(-c4nnc(C5(c6ccnc(Cl)c6)CC5)o4)c3c2)cn1 [A91]	1000 to 10000	1000 to 10000
Cn1cc(-c2cnc3[nH]cc(-c4cc(C(C)(O)c5ccc(=O)n(C)n5)on4)c3c2)cn1 (stereo not drawn) [A99, 6-(1-hydroxy-1-{3-[5-(1-methyl-1H-pyrazol-4-yl)-1H-pyrrolo-[2,3-b]pyridin-3-yl]isoxazol-5-yl}ethyl)-2-methyl-2H-pyridazin-3-one]	1000 to 10000	0.5 to 1000
Cn1cc(-c2cnc3[nH]cc(-c4noc(C(O)c5ccccc5)n4)c3c2)cn1 (stereo not drawn) [A23]	1000 to 10000	0.5 to 1000
Cn1cc(-c2cnc3[nH]cc(-c4cc(C(C)(O)c5cccc(F)c5F)[nH]n4)c3c2)cn1 (stereo not drawn) [A64]	0.5 to 1000	0.5 to 1000
Cn1cc(-c2cnc3[nH]cc(-c4nnc(C5(c6ccccc6Cl)CC5)o4)c3c2)cn1 [A83]	0.5 to 1000	0.5 to 1000
Cn1cc(-c2cnc3[nH]cc(-c4cc(C(C)(O)c5ccccc5)n(CCO)n4)c3c2)cn1 (stereo not drawn) [A68]	1000 to 10000	0.5 to 1000
Cn1cc(-c2cnc3[nH]cc(-c4noc(C(C)(O)c5cccc(F)c5)n4)c3c2)cn1 (stereo not drawn) [A51]	1000 to 10000	0.5 to 1000
Cn1cc(-c2cnc3[nH]cc(-c4cc(C(O)(c5ccnnc5)C(C)(C)C)on4)c3c2)cn1 (stereo not drawn) [A100, 2,2-dimethyl-1-{3-[5-(1-methyl-1H-pyrazol-4-yl)-1H-pyrrolo-[2,3-b]pyridin-3-yl]isoxazol-5-yl}-1-pyridazin-4-ylpropan-1-ol]	1000 to 10000	0.5 to 1000
Cn1cc(-c2cnc3[nH]cc(-c4nnc(C5(c6ccccn6)CC5)o4)c3c2)cn1 [A120]	1000 to 10000	1000 to 10000
Cn1cc(-c2cnc3[nH]cc(-c4nnc(C(O)c5cccc(F)c5)o4)c3c2)cn1 (stereo not drawn) [A47]	0.5 to 1000	0.5 to 1000
Cn1cc(-c2cnc3[nH]cc(-c4cc([C@@](C)(O)c5ccccc5)on4)c3c2)cn1 (single isomer, unassigned) [A34]	0.5 to 1000	0.5 to 1000
Cn1cc(-c2cnc3[nH]cc(-c4nnc(Cc5cccc(F)c5F)o4)c3c2)cn1 [A20]	1000 to 10000	0.5 to 1000
Cn1cc(-c2cnc3[nH]cc(-c4nnc(C(O)c5ccccc5C(F)(F)F)o4)c3c2)cn1 (stereo not drawn) [A86]	0.5 to 1000	0.5 to 1000
Cn1cc(-c2cnc3[nH]cc(-c4n[nH]c(C(C)(O)c5ccccc5)n4)c3c2)cn1 (stereo not drawn) [A42, 1-{5-[5-(1-methyl-1H-pyrazol-4-yl)-1H-pyrrolo[2,3-b]pyridin-3-yl]-2H-1,2,4-triazol-3-yl}-1-phenylethanol]	1000 to 10000	0.5 to 1000
